Results: the NIST ThermoML archive (doi:10.1021/acs.jced.7b00135)
Several values for one entry are separate records, joined by “and”; a condition that tells them apart may be missing. Identical values can stand only once. Numbers after ± are expanded uncertainties.

Tests used:
[1] = wn = mass fraction of the nth substance listed; details: 100 kPa, Liquid; for viscosity: Capillary tube (Ostwald / Ubbelohde) method; for mass density: Vibrating tube method
[2] = Liquid, Closed cell (Static) method

O=S(=O)([N-]S(=O)(=O)C(F)(F)F)C(F)(F)F.[Li+] [lithium bis((trifluoromethyl)sulfonyl)amide] + O
[1]
Details	mass density, 298.15 K [kg/m3]	mass density, 323.15 K [kg/m3]	mass density, 348.15 K [kg/m3]	mass density, 373.15 K [kg/m3]	viscosity, 298.15 K [mPa·s]	viscosity, 323.15 K [mPa·s]	viscosity, 348.15 K [mPa·s]	viscosity, 373.15 K [mPa·s]
w1 = 0.2739	1160 ± 1	1148 ± 1	1131 ± 1	1109 ± 1	1.54 ± 0.08	0.88 ± 0.04	0.59 ± 0.03	0.48 ± 0.02
w1 = 0.4871	1325 ± 1	1304 ± 1	1282 ± 1	1258 ± 1	2.74 ± 0.14	1.5 ± 0.08	1 ± 0.05	0.68 ± 0.03
w1 = 0.6633	1493 ± 1	1467 ± 1	1440 ± 1	1401 ± 1	5.34 ± 0.27	2.83 ± 0.14	1.82 ± 0.09	1.54 ± 0.08
w1 = 0.8024	1654 ± 1	1624 ± 1	1598 ± 1	1557 ± 1	18.23 ± 0.92	8.75 ± 0.44	5.2 ± 0.26	3.42 ± 0.17

O [water]
[2]
Details	vapor or sublimation pressure
274.15 K	0.661 ± 0.031 kPa and 0.657 ± 0.055 kPa
278.15 K	0.873 ± 0.069 kPa
279.48 K	0.953 ± 0.031 kPa
283.15 K	1.228 ± 0.095 kPa
286.16 K	1.508 ± 0.031 kPa
291.39 K	2.094 ± 0.032 kPa
293.14 K	2.337 ± 0.032 kPa
293.15 K	2.339 ± 0.18 kPa
296.31 K	2.839 ± 0.032 kPa
296.32 K	2.834 ± 0.032 kPa
298.81 K	3.288 ± 0.032 kPa
301.37 K	3.827 ± 0.033 kPa
303.15 K	4.247 ± 0.33 kPa
303.57 K	4.36 ± 0.033 kPa
307.73 K	5.507 ± 0.034 kPa
308.26 K	5.666 ± 0.034 kPa
312.87 K	7.275 ± 0.036 kPa
313.07 K	7.345 ± 0.035 kPa
313.15 K	7.385 ± 0.57 kPa
314.62 K	7.977 ± 0.036 kPa
318.13 K	9.585 ± 0.038 kPa and 9.578 ± 0.038 kPa
322.99 K	12.26 ± 0.041 kPa
323.1 K	12.32 ± 0.041 kPa
323.15 K	12.35 ± 0.96 kPa
323.17 K	12.36 ± 0.041 kPa
328.14 K	15.75 ± 0.045 kPa
328.88 K	16.31 ± 0.045 kPa
333.15 K	20.06 ± 0.051 kPa and 19.95 ± 1.5 kPa
343.15 K	31.28 ± 0.066 kPa and 31.2 ± 2.4 kPa
353.15 K	47.45 ± 0.091 kPa and 47.41 ± 3.7 kPa
363.15 K	70.21 ± 0.13 kPa and 70.18 ± 5.4 kPa
373.15 K	101.42 ± 1.5 kPa and 101.42 ± 7.9 kPa
383.15 K	143.29 ± 1.5 kPa and 143.38 ± 11 kPa
393.15 K	198.75 ± 1.5 kPa and 198.67 ± 15 kPa
403.15 K	270.22 ± 1.6 kPa and 270.28 ± 21 kPa
413.15 K	361.64 ± 1.6 kPa and 361.54 ± 28 kPa
423.15 K	476.33 ± 1.7 kPa and 476.17 ± 37 kPa
433.15 K	618.34 ± 1.8 kPa and 618.24 ± 48 kPa
443.15 K	792.15 ± 1.9 kPa and 792.19 ± 61 kPa
453.15 K	1002.7 ± 2.1 kPa and 1002.8 ± 78 kPa
463.15 K	1255.2 ± 2.4 kPa and 1255.2 ± 97 kPa
468.15 K	1398.9 ± 2.6 kPa
470.15 K	1459.7 ± 2.6 kPa
471.15 K	1491 ± 2.7 kPa and 1490.9 ± 120 kPa
